Source: article PMC4722887 (Oncology Reports, 2015)

Test system: CD8 T cells of HLA-A*0201-transgenic HHD mice
Assay type: in vivo, mouse

Substance	Immunogenicity when coupled to the surface of the liposomes (HHD mice)	CD8 T-cell immune responses against the native epitope, peptide emulsified in IFA (injected in HHD mice)
1: native hTERT peptide, start position 540 (540–548) (ILAKFLHWL) [Peptide 1]	no immunogenicity	
14: heteroclitical peptide derived from #13 (p944) (LQAYRFHAV) [Peptide 14]		only weak
